Data: patent EP0103895A2, “Novel hydroxylamine derivatives, production and use thereof” (MEIJI SEIKA KABUSHIKI KAISHA, priority 1982, dated 1984)
Like-named read-outs stand apart in the source and are kept apart here.

How the values were obtained:
[1] = test system: fowl roundworm (As. galli); assay: Anthelmintic test in chickens artificially infected with fowl roundworm, compound added to feed, E.P.G. and worm count up to 21st day (Test Examples A2, B2, C2, D2); format: in vivo, Ascaridia galli; details: Ascaridia galli, 504 h, read-out: Anthelmintic effect; for inhibition in vivo at 10 ppm: 10 ppm added to feed
Protocol: Chickens artificially infected with fowl roundworm (As. galli) were employed in groups each of two chickens.
Fecal matter testing was conducted before initiation of the test and on the 7th, 14th and 21st day after initiation of the test. Reduction in worm egg number was examined by calculating E.P.G. (worm eggs per 1 g of fecal matter), and the number of discharged worm bodies and the number of worm bodies remaining in the enteron when the chicken was killed on 21st day were counted to determine the anthelmintic percentage, from which the anthelmintic effect was judged.

[2] = test system: Liver fluke; Fasciola hepatica (F. hepatica); assay: Test of anthelmintic effect against rat infected experimentally with liver fluke (Test Examples A11, B11, C11, D11); format: in vivo; parameters: key to Presence or absence of fluke egg in fecal matter On 21st day after the last administration: +: indicates detection of fluke egg; -: indicates no detection; details: for Condition of fluke body: autopsy, liver, "Denatured" = fluke body is alive but a part of fluke body has changed
Excerpt: Twenty-eight (28) rats were employed in fourteen groups each of two rats, each rat being infected with 5 metacercariae of Liver fluke; Fasciola he^patica (F.. hepatica) and confirmed to have worm eggs on the 75th day after infection according to fecal matter testing.
Judgement of the effect was made by the presence or absence of the worm gees in the fecal matter on the 21st day after the last administration and by examination according to autopsis as to whether the worm bodies were dead or alive in the liver.
The same as that in Test Example All, but eight (8) rats were employed by grouping them into groups each of two rats, each rat being infected with 5 metacercariae of liver fluke and confirmed to have fluke eggs on the 75th day after infection according to fecal matter testing.
The compounds provided for the tests were Compound Nos. Bl, B8 and B19.
The same as that in Test Example All, but six (6) rats were employed by grouping them into groups each of two rats, each rat being infected with 5 metacercariae of Fasciola hepatica and confirmed to have worm eggs on the 75th day after infection according to fecal matter testing.
The compounds provided for the tests were Compound Nos. C2 and C6.
The same as that in Test Example All, but the compounds provided for tests were Compound Nos. D14, D15 and D16.

[3] = test system: fowl roundworm (Ascaridia galli); assay: Anthelmintic test in chickens artificially infected with fowl roundworm, single oral dose in gelatin capsule, worm bodies counted within 48 hours (Test Examples A1, B1, C1, D1); format: in vivo; details: Ascaridia galli, po, 48 h, chicken, chickens No.1-3, read-out: Anthelmintic effect after 48 hours
Protocol: Chickens infected artificially with fowl roundworm (Ascaridia galli) were employed in groups each consisting of three chickens. Fecal matter testing was conducted before administration of medicine to confirm infection with the worm. The quantity of the compound provided for testing was 10 mg and 20 mg per Kg of body weight, which was orally administered each in a gelatin capsule to the chicken. The number of worm bodies discharged within 48 hours after administration of medicine was counted, the chicken was killed after 48 hours and the number of worm bodies remaining in the enteron was counted to determine the anthelmintic percentage, wherefrom the antihelmintic effect was judged.
The same as that in Test Example Al.
The same as that in Test Example Al except that the compound provided for testing was in quantities of 30 mg and 50 mg per Kg of body weight, which were orally administered to the chickens in gelatin capsules.
The same as that in Test Example Al, except that the compounds provided for testing were used in quantities of 15 mg and 30 mg per Kg of body weight, which were orally administered each in a gelatin capsule to the chicken.

[4] = po, chickens, worm count on 21st day, one value per chicken
[5] = po, chickens, 50 ppm added to feed, worm count on 21st day, one value per chicken
[6] = rats, 50 mg/Kg x 5 orally, one value per rat

Row | SMILES | inhibition in vivo at 10 ppm [1, 4] [%] | inhibition in vivo at 50 ppm [1, 5] [%] | Condition of fluke body ([2]; rats, 50 mg/Kg x 5 orally, one value per rat, 50 mg/kg) | Presence or absence of fluke egg in fecal matter On 21st day after the last administration [2, 6] | Condition of fluke body [2, 6] | inhibition in vivo at 25 ppm ([1]; feed or water, chicken, 25 ppm in feed) [%] | inhibition in vivo at 50 ppm ([1]; feed or water, chicken, 50 ppm in feed) [%] | Condition of fluke bodies ([2]; rat, 50 mg/Kg x 5) | Presence or absence of fluke egg in fecal matter On 21st day after the last administration ([2]; rat, 50 mg/Kg x 5) | anthelmintic effect ([2]; rats, five administrations in a dose of 50 mg/Kg each) | inhibition in vivo at 15 mg/kg ([3]; 15 mg/Kg oral in gelatin capsule) [%] | inhibition in vivo at 30 mg/kg ([3]; 30 mg/Kg oral in gelatin capsule) [%]
1 | C#CCN(OCC=C)C(=O)CCC [Compound A6, N-propargyl-N-butylyl-O-allylhydroxylamine] | 100 | 100 | dead and denatured | - |  |  |  |  |  |  |  | 
2 | C#CCN(OCC)C(C)=O [Compound A2, N-propargyl-N-acetyl-O-ethylhydroxylamine] | 80 to 90 | 100 |  | - | dead |  |  |  |  |  |  | 
3 | C#CCN(OCC=C)C(=O)c1ccccc1 [Compound A11, N-propargyl-N-benzoyl-O-allylhydroxylamine] | 80 to 90 | 100 |  | - | dead |  |  |  |  |  |  | 
4 | C#CCNOCC#C [Compound D15] |  |  |  |  |  | 80 to 90 | 100 | dead | - | marked anthelmintic effect | 100 | 100
5 | C#CCN(OCC=CC)C(C)=O [Compound A4, N-propargyl-N-acetyl-O-crotylhydroxylamine] | 80 to 90 | 100 |  | - | dead |  |  |  |  |  |  | 
6 | C#CCN(OCC=C)C(=O)CCCCCCCCCCCCCCCCC [Compound A9, N-propargyl-N-stearoyl-N-allylhydroxylamine] | 100 | 100 |  | - | dead |  |  |  |  |  |  | 
7 | C#CCN(OCC=C)C(=O)CCCC [Compound A7, N-propargyl-N-valeroyl-O-allylhydroxylamine] | 80 to 90 | 100 |  | - | dead |  |  |  |  |  |  | 
